Measurements from PMC11432405, “Development of Novel Alaninamide Derivatives with Anticonvulsant Activity and Favorable Safety Profiles in Animal Models” (International Journal of Molecular Sciences, 2024).
Like-named read-outs stand apart in the source and are kept apart here.

Columns and labels:
[1] = rotarod test (acute neurological toxicity, motor coordination); format: in vivo; conditions: male, CD-1 (albino Swiss), mouse, in vivo, ip, mice i.p.
Procedure: The protective indexes (PIs) were then calculated as the ratio of TD50 to ED50 (PI = TD50/ED50), providing an assessment of the therapeutic window for each compound.
Each group consisted of six animals.

GlyT1 = target: T1, GlyT1 (Rattus norvegicus, UniProt P28572); test: radioligand binding GlyT1; conditions: rat cerebral cortex
T1 construct: Cerep Laboratories / Eurofins (contract assay)
T1 sequence (P28572 1-638): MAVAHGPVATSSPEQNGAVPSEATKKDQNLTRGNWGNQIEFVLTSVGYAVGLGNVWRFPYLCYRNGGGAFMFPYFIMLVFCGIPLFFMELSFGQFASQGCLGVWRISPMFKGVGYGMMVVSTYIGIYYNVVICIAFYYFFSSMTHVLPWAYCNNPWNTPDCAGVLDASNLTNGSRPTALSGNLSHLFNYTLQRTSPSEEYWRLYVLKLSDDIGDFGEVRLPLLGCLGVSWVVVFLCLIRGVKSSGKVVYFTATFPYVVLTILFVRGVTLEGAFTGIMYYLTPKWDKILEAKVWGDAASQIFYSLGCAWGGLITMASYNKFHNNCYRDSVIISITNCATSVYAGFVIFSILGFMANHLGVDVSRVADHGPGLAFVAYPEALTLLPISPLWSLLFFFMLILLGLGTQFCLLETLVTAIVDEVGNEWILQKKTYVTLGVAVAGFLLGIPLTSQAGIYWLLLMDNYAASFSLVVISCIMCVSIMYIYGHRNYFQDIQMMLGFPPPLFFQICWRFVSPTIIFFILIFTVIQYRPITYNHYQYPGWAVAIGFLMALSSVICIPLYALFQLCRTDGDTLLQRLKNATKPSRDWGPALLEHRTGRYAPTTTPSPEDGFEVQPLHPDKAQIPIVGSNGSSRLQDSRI
Procedure: (§1) Binding/functional studies were performed commercially in Cerep Laboratories (Poitiers, France) using testing procedures described elsewhere. The general information is listed in Table S3 in the Supporting Information.
(§2) Table S3. The general information of radioligand binding/functional assays. […]
GLYT1 (glycine transporter binding) (antagonist radioligand) […]
(§3) Assays were performed commercially in Eurofins Cerep SA (Celle l’Evescault, France) and Eurofins
(§4) Panlabs Discovery Services Taiwan, Ltd. (New Taipei City, Taiwan), using procedures describe

[2] = target: T2, Cav1.2 (h) calcium ion channel (Homo sapiens, UniProt Q13936); test: Cav1.2 (h) calcium ion channel cell-based antagonist calcium flux assay
T2 construct: Eurofins Cerep SA / Eurofins Panlabs Discovery Services Taiwan (contract assay)
Procedure: as §1, §2
Cav1.2 (L-type) (h) calcium ion channel cell based antagonist calcium flux assay
as §3, §4

hERG potassium channel = target: T3, hERG potassium channel (Homo sapiens, UniProt Q12809); test: radioligand binding potassium channel (hERG); conditions: HEK-293 cells expressing human recombinant hERG, human recombinant HEK-293 cell, read-out: % Inhibition of Control Specific Binding
T3 construct: Cerep Laboratories / Eurofins (contract assay)
Procedure: as §1, §2
(§5) Potassium channel (hERG) […]
as §3, §4

Potassium channel (hERG) = target: T4, Potassium channel (hERG) (Homo sapiens, UniProt Q12809); test: radioligand binding potassium channel (hERG); conditions: 100 µM, human recombinant HEK-293 cell
T4 construct: Cerep Laboratories / Eurofins (contract assay)
Procedure: as §1, §2, §5, §3, §4

human recombinant MAO-B = target: T5, human recombinant MAO-B (Homo sapiens, UniProt P27338); test: fluorometric monoamine oxidase B inhibition assay; format: biochemical; conditions: read-out: % inhibition MAO-B (1 µM), mean of two independent experiments
T5 construct: purchased Sigma Aldrich
T5 sequence (P27338 1-520): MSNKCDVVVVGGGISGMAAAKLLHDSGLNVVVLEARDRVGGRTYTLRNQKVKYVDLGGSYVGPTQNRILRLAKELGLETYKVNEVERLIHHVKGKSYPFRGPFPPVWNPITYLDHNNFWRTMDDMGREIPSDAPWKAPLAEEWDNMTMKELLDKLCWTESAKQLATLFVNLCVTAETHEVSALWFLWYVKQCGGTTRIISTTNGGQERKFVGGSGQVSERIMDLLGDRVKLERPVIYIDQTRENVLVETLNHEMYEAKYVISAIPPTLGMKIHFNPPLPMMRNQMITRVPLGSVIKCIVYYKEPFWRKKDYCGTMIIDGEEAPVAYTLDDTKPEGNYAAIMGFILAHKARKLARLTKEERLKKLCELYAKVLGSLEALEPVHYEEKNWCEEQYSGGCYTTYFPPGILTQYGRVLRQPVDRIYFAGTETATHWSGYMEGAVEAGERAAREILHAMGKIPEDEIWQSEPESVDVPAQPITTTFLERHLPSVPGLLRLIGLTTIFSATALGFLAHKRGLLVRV

Cav2.2 N-type = target: T6, Cav2.2 N-type (Rattus norvegicus, UniProt P54290); test: radioligand binding Cav2.2 N-type; conditions: rat cerebral cortex, antagonist radioligand
T6 construct: Rat cerebral cortex; tissue Cerep Laboratories / Eurofins (contract assay); host or cells: rat cerebral cortex
Procedure: as §1, §2
N-type Ca2+ [3H] Gabapentin binding (antagonist radioligand) […]
as §3, §4

HepG2 cells = test: hepatocytotoxicity MTT viability assay; format: cell-based, human; conditions: 1–50 µM, 24 h
Procedure: To evaluate selected compounds’ hepatocytotoxicity and neurocytotoxicity, a human hepatocellular carcinoma cell line, HepG2 (ATCC® HB-8065™), and a human neuroblastoma cell line, SH-SY5Y (ATCC®, CRL-2266™), were used. Both cell lines were cultured in standard culture conditions (5% CO2, 37 °C, 95% humidity) using Dulbecco′s Modified Eagle′s—Medium (DMEM; Gibco, Thermo Scientific, Waltham, MA, USA) supplemented with 10% (vol/vol) fetal bovine serum (FBS; Gibco, Thermo Scientific, Waltham, MA, USA) and an antibiotic mixture (Penicillin, Streptomycin, Amphotericin B; Gibco, Thermo Scientific, Waltham, MA, USA). Cells were cultured with compounds 5, […], or 39 (1–50 µM) for 24 h and then an MTT (3-(4,5-dimethylthiazol-2-yl)-2,5diphenyltetrazolium bromide, Sigma-Aldrich, St. Louis, MO, USA) viability assay was performed. The formazan crystals were dissolved in DMSO (Sigma-Aldrich, St. Louis, MO, USA), and the absorbance at 570 nm was measured using a microplate reader (SpectraMax® iD3, Molecular Devices, San Jose, CA, USA). The experiment was performed three times in duplicate. Each bar represents the mean (±SEM) percentage of viable cells in comparison to the control (defined as 100% and represented by untreated cells).
Figure 2 The viability of HepG2 cells incubated in the presence of 5, 17, and 39. HepG2 cells were exposed to growing concentrations (1–50 µM) of tested compounds for 24 h. Cell viability was measured using an MTT assay. Bars represent mean percent of cell viability normalized to non-treated cells (100%) ± SEM. The doxorubicin was tested as a positive control.

[3] = read-out: % Inhibition of Control Specific Binding

T2 sequence (Q13936 whole entry): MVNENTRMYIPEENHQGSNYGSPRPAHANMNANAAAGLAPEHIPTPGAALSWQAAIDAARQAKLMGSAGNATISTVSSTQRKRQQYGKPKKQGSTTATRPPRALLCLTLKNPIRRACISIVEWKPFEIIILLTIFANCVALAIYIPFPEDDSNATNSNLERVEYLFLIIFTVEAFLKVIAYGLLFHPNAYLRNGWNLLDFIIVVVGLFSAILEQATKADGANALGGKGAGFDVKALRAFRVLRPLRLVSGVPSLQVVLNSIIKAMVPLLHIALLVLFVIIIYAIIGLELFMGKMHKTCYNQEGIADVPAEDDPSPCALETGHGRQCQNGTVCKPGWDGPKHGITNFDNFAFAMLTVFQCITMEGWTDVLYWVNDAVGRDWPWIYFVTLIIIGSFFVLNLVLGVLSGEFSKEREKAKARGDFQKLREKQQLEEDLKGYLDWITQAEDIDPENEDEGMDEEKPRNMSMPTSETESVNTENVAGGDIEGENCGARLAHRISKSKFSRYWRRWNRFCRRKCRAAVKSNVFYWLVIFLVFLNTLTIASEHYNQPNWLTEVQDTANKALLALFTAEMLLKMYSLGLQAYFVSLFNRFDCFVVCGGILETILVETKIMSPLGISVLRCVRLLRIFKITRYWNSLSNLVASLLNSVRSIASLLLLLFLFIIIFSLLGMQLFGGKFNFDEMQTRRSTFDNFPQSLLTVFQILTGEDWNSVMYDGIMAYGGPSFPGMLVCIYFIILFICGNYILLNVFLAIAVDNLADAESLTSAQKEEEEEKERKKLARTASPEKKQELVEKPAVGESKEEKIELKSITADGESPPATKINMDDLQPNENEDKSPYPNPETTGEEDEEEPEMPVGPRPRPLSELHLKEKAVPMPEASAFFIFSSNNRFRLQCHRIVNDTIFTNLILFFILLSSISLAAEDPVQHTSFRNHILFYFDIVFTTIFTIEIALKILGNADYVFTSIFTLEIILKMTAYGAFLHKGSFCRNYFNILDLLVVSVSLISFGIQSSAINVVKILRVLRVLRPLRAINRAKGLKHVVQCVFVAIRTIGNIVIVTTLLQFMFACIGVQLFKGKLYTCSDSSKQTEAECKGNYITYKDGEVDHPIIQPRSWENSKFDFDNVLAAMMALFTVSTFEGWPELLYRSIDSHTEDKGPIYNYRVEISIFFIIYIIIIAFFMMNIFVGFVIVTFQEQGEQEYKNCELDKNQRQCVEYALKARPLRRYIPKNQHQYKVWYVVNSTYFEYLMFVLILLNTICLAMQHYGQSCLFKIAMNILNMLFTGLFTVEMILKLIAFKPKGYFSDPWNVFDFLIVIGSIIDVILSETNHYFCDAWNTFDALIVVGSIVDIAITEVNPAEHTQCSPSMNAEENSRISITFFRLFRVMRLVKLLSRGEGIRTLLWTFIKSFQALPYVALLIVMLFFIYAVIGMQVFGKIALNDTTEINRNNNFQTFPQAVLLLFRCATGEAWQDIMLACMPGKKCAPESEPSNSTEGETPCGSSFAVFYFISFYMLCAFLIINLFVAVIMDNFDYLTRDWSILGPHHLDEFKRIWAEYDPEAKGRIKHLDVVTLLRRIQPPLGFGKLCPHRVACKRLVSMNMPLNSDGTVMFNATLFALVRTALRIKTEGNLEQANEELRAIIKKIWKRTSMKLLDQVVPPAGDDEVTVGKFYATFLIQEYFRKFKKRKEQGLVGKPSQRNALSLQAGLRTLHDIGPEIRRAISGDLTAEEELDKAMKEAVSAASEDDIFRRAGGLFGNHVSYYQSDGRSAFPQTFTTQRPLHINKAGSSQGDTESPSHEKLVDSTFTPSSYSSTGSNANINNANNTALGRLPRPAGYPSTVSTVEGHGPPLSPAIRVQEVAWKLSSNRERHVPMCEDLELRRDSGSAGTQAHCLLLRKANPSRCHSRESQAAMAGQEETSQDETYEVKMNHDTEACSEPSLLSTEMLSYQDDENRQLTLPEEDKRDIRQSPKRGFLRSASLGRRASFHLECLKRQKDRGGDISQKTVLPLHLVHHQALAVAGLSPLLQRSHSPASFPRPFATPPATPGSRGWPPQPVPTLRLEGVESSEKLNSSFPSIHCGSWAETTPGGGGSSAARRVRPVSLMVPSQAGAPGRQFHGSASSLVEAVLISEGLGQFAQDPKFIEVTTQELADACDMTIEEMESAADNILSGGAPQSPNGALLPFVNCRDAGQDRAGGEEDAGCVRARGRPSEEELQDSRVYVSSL
T2 sequence (Q08289 whole entry partner): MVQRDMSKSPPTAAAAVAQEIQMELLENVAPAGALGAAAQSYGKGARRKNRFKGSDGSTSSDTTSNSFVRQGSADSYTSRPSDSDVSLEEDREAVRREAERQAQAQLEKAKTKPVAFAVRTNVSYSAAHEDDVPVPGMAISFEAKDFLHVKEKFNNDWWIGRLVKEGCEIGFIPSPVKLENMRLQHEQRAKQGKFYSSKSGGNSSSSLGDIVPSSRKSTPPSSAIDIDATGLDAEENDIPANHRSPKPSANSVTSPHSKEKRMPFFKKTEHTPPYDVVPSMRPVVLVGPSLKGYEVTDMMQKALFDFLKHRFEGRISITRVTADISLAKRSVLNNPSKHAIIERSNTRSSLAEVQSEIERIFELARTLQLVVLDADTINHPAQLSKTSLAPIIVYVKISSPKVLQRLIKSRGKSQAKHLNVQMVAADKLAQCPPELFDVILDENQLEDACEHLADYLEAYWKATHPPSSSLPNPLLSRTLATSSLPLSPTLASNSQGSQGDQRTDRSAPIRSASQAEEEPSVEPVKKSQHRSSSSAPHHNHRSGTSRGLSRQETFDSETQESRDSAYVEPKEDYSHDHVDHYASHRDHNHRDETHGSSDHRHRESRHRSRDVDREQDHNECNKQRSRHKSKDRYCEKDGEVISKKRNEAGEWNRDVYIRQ
T2 sequence (P54289 25-1103 partner): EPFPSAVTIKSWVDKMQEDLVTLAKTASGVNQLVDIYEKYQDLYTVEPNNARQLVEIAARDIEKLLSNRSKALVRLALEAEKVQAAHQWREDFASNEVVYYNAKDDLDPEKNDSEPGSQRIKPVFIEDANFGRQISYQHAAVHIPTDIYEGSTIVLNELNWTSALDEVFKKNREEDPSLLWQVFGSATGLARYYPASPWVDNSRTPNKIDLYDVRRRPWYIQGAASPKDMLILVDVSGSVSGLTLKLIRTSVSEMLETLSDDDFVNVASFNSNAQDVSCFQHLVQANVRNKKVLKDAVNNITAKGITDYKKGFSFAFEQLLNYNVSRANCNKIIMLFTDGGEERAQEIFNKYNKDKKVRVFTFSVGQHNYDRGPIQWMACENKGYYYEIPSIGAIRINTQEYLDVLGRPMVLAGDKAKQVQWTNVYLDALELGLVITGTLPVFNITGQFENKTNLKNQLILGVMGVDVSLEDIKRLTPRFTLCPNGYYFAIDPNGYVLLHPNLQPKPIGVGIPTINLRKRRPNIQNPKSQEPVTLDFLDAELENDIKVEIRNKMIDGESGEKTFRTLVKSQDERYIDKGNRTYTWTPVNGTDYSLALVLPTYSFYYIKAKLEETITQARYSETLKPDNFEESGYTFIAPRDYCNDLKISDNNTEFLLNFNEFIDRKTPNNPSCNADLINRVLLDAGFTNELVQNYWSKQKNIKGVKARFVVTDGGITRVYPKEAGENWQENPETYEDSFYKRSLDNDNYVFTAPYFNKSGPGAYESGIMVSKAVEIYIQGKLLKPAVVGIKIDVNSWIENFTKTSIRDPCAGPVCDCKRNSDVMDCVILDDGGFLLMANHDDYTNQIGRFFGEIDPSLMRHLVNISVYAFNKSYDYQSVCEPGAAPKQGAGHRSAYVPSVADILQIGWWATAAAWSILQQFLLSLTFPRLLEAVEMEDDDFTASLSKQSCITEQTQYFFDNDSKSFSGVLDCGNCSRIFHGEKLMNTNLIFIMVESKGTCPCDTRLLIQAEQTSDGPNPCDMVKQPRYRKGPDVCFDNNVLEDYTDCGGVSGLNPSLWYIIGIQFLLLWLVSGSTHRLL
T6 sequence (P54290 25-944 limits assumed): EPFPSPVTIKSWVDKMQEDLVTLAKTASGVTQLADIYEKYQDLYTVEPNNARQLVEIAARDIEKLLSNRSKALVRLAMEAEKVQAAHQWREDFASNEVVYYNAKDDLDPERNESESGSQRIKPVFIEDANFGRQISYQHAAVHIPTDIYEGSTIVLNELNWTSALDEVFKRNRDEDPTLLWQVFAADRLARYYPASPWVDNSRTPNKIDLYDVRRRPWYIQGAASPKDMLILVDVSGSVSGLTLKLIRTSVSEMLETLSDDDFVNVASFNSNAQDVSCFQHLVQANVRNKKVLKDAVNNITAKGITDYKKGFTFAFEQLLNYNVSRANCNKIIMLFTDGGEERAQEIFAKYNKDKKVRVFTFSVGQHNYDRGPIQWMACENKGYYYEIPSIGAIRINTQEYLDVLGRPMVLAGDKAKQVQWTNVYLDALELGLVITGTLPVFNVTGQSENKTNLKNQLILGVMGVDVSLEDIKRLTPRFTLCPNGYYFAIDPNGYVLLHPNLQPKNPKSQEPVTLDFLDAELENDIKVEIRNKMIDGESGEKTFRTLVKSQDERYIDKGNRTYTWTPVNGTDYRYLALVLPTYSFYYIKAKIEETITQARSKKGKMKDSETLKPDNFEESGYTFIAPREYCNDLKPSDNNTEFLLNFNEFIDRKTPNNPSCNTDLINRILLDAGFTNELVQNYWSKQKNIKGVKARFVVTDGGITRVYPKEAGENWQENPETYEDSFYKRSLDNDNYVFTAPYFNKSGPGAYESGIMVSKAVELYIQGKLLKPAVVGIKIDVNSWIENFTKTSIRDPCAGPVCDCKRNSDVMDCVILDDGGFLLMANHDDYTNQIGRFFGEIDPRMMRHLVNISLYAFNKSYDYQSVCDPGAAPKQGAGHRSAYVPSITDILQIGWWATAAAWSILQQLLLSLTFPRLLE
T6 sequence (P54290 945-1091 limits assumed): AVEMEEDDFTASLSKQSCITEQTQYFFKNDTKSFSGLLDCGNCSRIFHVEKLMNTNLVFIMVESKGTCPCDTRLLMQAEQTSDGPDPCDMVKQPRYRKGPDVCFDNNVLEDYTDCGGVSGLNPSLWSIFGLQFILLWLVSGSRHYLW

For `CC(C(=O)NCc1ccc(OCc2ccccc2)cc1)N1C(=O)CCC1=O` (centres unmarked) [Compound 5, N-(4-(benzyloxy)benzyl)-2-(2,5-dioxopyrrolidin-1-yl)propanamide], the TD50 at 0.5 h [1] was > 300 mg/kg, the “% Inhibition of Control Specific Binding” value (GlyT1; 100 µM) was “no significant interaction” and the inhibition at 100 µM (GlyT1; [3]) was 23%. For the same compound, the inhibition at 100 µM ([2]; HEK293, human recombinant HEK-293 cell, read-out: % Inhibition of Control Agonist Response) was 85%, the inhibition at 100 µM ([2]; read-out: inhibition rate of the Cav1.2 (L-type) calcium channel (text summary of binding and functional assays)) was > 50% and the inhibition at 100 µM (hERG potassium channel) was 4.5%. The “% Inhibition of Control Specific Binding” value (Potassium channel (hERG)) was “did not bind”, the inhibition at 1 µM (human recombinant MAO-B) was 0% and the “% Inhibition of Control Specific Binding” value (Cav2.2 N-type; 100 µM) was “no significant interaction”. For the same compound, the inhibition at 100 µM (Cav2.2 N-type; [3]) was 1.1% and the “toxic effect on HepG2 cell viability (MTT)” value (HepG2 cells) was “do not exhibit toxic effects”.
